Patent publication US20230085307A1, “PYRIDAZINONE COMPOUND AND HERBICIDE” (NISSAN CHEMICAL CORPORATION, priority 2019, published 2023)

Columns and labels:
barnyard grass [1] = experiment: Test Example 3: herbicidal effect by foliage application, Wagner pot (Table 18, symbol H); format: in vivo, barnyard grass (Echinochloa crus-galli); details: 320 g/ha
In short: (§1)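 Plants were sown in alluvial soil held under 0.1–0.5 cm standing water and grown 14 days in a greenhouse at 25–30 °C. An emulsifiable formulation, water-diluted to the set dose, was then sprayed onto the foliage, and effects were scored three weeks later using previously defined criteria.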

Chinese sprangletop = experiment: Test Example 3: herbicidal effect by foliage application, Wagner pot (Table 18, symbol D); format: in vivo, chinese sprangletop (Leptochloa chinensis); details: 320 g/ha
In short: as §1

rice flat sedge = experiment: Test Example 3: herbicidal effect by foliage application, Wagner pot (Table 18, symbol E); format: in vivo, rice flat sedge (Cyperus iria); details: 320 g/ha
In short: as §1

southern crabgrass [2] = experiment: Test Example 4: herbicidal effect by soil treatment (Table 19, symbol F); format: in vivo, southern crabgrass (Digitaria ciliaris); details: amount of applied herbicide 320 g/ha
In short: (§2)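 Pre-emergence style soil spray: seeds under ~1.5 cm sterilized diluvial soil received a uniform coat of emulsion diluted to the predetermined herbicide amount. Greenhouse 25–30° C; readout at week three on previously defined criteria.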

green foxtail [3] = experiment: Test Example 4: herbicidal effect by soil treatment (Table 19, symbol G); format: in vivo, green foxtail (Setaria viridis); details: amount of applied herbicide 320 g/ha
In short: as §2

barnyard grass [4] = experiment: Test Example 4: herbicidal effect by soil treatment (Table 19, symbol H); format: in vivo, barnyard grass (Echinochloa crus-galli); details: amount of applied herbicide 320 g/ha
In short: as §2

wild oat [5] = experiment: Test Example 4: herbicidal effect by soil treatment (Table 19, symbol I); format: in vivo, wild oat (Avena fatua); details: amount of applied herbicide 320 g/ha
In short: as §2

blackgrass [6] = experiment: Test Example 4: herbicidal effect by soil treatment (Table 19, symbol J); format: in vivo, blackgrass (Alopecurus myosuroides); details: amount of applied herbicide 320 g/ha
In short: as §2

Italian ryegrass [7] = experiment: Test Example 4: herbicidal effect by soil treatment (Table 19, symbol K); format: in vivo, Italian ryegrass (Lolium multiflorum); details: amount of applied herbicide 320 g/ha
In short: as §2

windgrass = experiment: Test Example 4: herbicidal effect by soil treatment (Table 19, symbol L); format: in vivo, windgrass (Apera spica-venti); details: amount of applied herbicide 320 g/ha
In short: as §2

velvetleaf [8] = experiment: Test Example 4: herbicidal effect by soil treatment (Table 19, symbol M); format: in vivo, velvetleaf (Abutilon theophrasti); details: amount of applied herbicide 320 g/ha
In short: as §2

redroot pigweed [9] = experiment: Test Example 4: herbicidal effect by soil treatment (Table 19, symbol N); format: in vivo, redroot pigweed (Amaranthus retroflexus); details: amount of applied herbicide 320 g/ha
In short: as §2

lambsquarters [10] = experiment: Test Example 4: herbicidal effect by soil treatment (Table 19, symbol O); format: in vivo, lambsquarters (Chenopodium album); details: amount of applied herbicide 320 g/ha
In short: as §2

chickweed [11] = experiment: Test Example 4: herbicidal effect by soil treatment (Table 19, symbol P); format: in vivo, common chickweed (Stellaria media); details: amount of applied herbicide 320 g/ha
In short: as §2

persian speedwell [12] = experiment: Test Example 4: herbicidal effect by soil treatment (Table 19, symbol R); format: in vivo, Persian speedwell (Veronica persica); details: amount of applied herbicide 320 g/ha
In short: as §2

southern crabgrass [13] = experiment: Test Example 5: herbicidal effect by foliage application, plastic box (Table 20, symbol F); format: in vivo, southern crabgrass (Digitaria ciliaris); details: 320 g/ha, foliage application after 14-day growth, evaluated three weeks after application
In short: (§3)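 Plants were sown into sterilized diluvial soil under about 1.5 cm cover and kept in a greenhouse at 25° C. to 30° C. Fourteen days on, foliage received an even spray of the diluted emulsion. Herbicidal or crop effect was judged three weeks afterwards.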

green foxtail [14] = experiment: Test Example 5: herbicidal effect by foliage application, plastic box (Table 20, symbol G); format: in vivo, green foxtail (Setaria viridis); details: 320 g/ha, foliage application after 14-day growth, evaluated three weeks after application
In short: as §3

barnyard grass [15] = experiment: Test Example 5: herbicidal effect by foliage application, plastic box (Table 20, symbol H); format: in vivo, barnyard grass (Echinochloa crus-galli); details: 320 g/ha, foliage application after 14-day growth, evaluated three weeks after application
In short: as §3

wild oat [16] = experiment: Test Example 5: herbicidal effect by foliage application, plastic box (Table 20, symbol I); format: in vivo, wild oat (Avena fatua); details: 320 g/ha, foliage application after 14-day growth, evaluated three weeks after application
In short: as §3

blackgrass [17] = experiment: Test Example 5: herbicidal effect by foliage application, plastic box (Table 20, symbol J); format: in vivo, blackgrass (Alopecurus myosuroides); details: 320 g/ha, foliage application after 14-day growth, evaluated three weeks after application
In short: as §3

Italian ryegrass [18] = experiment: Test Example 5: herbicidal effect by foliage application, plastic box (Table 20, symbol K); format: in vivo, Italian ryegrass (Lolium multiflorum); details: 320 g/ha, foliage application after 14-day growth, evaluated three weeks after application
In short: as §3

velvetleaf [19] = experiment: Test Example 5: herbicidal effect by foliage application, plastic box (Table 20, symbol M); format: in vivo, velvetleaf (Abutilon theophrasti); details: 320 g/ha, foliage application after 14-day growth, evaluated three weeks after application
In short: as §3

redroot pigweed [20] = experiment: Test Example 5: herbicidal effect by foliage application, plastic box (Table 20, symbol N); format: in vivo, redroot pigweed (Amaranthus retroflexus); details: 320 g/ha, foliage application after 14-day growth, evaluated three weeks after application
In short: as §3

lambsquarters [21] = experiment: Test Example 5: herbicidal effect by foliage application, plastic box (Table 20, symbol O); format: in vivo, lambsquarters (Chenopodium album); details: 320 g/ha, foliage application after 14-day growth, evaluated three weeks after application
In short: as §3

chickweed [22] = experiment: Test Example 5: herbicidal effect by foliage application, plastic box (Table 20, symbol P); format: in vivo, common chickweed (Stellaria media); details: 320 g/ha, foliage application after 14-day growth, evaluated three weeks after application
In short: as §3

persian speedwell [23] = experiment: Test Example 5: herbicidal effect by foliage application, plastic box (Table 20, symbol R); format: in vivo, Persian speedwell (Veronica persica); details: 320 g/ha, foliage application after 14-day growth, evaluated three weeks after application
In short: as §3

Row | SMILES | herbicidal effect on barnyard grass (H) (barnyard grass [1]) | herbicidal effect on Chinese sprangletop (D) (Chinese sprangletop) | herbicidal effect on rice flat sedge (E) (rice flat sedge) | Herbicidal effect by soil treatment, F: southern crabgrass (southern crabgrass [2]) | Herbicidal effect by soil treatment, G: green foxtail (green foxtail [3]) | Herbicidal effect by soil treatment, H: barnyard grass (barnyard grass [4]) | Herbicidal effect by soil treatment, I: wild oat (wild oat [5]) | Herbicidal effect by soil treatment, J: blackgrass (blackgrass [6]) | Herbicidal effect by soil treatment, K: Italian ryegrass (Italian ryegrass [7]) | Herbicidal effect by soil treatment, L: windgrass (windgrass) | Herbicidal effect by soil treatment, M: velvetleaf (velvetleaf [8]) | Herbicidal effect by soil treatment, N: redroot pigweed (redroot pigweed [9]) | Herbicidal effect by soil treatment, O: lambsquarters (lambsquarters [10]) | Herbicidal effect by soil treatment, P: chickweed (chickweed [11]) | Herbicidal effect by soil treatment, R: persian speedwell (persian speedwell [12]) | herbicidal effect on F: southern crabgrass (evaluation grade 0-5) (southern crabgrass [13]) | herbicidal effect on G: green foxtail (evaluation grade 0-5) (green foxtail [14]) | herbicidal effect on H: barnyard grass (evaluation grade 0-5) (barnyard grass [15]) | herbicidal effect on I: wild oat (evaluation grade 0-5) (wild oat [16]) | herbicidal effect on J: blackgrass (evaluation grade 0-5) (blackgrass [17]) | further results
1 | Cc1nn(C)c(=O)c(-c2c(-c3ccc(F)cc3)sc3c(Cl)cccc23)c1O [4-015] | 3 (Herbicidal rate of 40% or more and less than 70%) | 3 (Herbicidal rate of 40% or more and less than 70%) | 5 (Herbicidal rate of 90% or more (almost completely withered)) | 0 (Herbicidal rate of 5% or less (almost no effect)) | 0 (Herbicidal rate of 5% or less (almost no effect)) | 0 (Herbicidal rate of 5% or less (almost no effect)) | 0 (Herbicidal rate of 5% or less (almost no effect)) | 0 (Herbicidal rate of 5% or less (almost no effect)) | 0 (Herbicidal rate of 5% or less (almost no effect)) | 0 (Herbicidal rate of 5% or less (almost no effect)) | 0 (Herbicidal rate of 5% or less (almost no effect)) | 2 (Herbicidal rate of 20% or more and less than 40%) | 3 (Herbicidal rate of 40% or more and less than 70%) | 0 (Herbicidal rate of 5% or less (almost no effect)) | 0 (Herbicidal rate of 5% or less (almost no effect)) | 0 (Herbicidal rate of 5% or less (almost no effect)) | 0 (Herbicidal rate of 5% or less (almost no effect)) | 0 (Herbicidal rate of 5% or less (almost no effect)) | 0 (Herbicidal rate of 5% or less (almost no effect)) | 0 (Herbicidal rate of 5% or less (almost no effect)) | herbicidal effect on K: Italian ryegrass (evaluation grade 0-5) (Italian ryegrass [18]): 0 (Herbicidal rate of 5% or less (almost no effect)); herbicidal effect on M: velvetleaf (evaluation grade 0-5) (velvetleaf [19]): 1 (Herbicidal rate of 5% or more and less than 20%); herbicidal effect on N: redroot pigweed (evaluation grade 0-5) (redroot pigweed [20]): 1 (Herbicidal rate of 5% or more and less than 20%); herbicidal effect on O: lambsquarters (evaluation grade 0-5) (lambsquarters [21]): 1 (Herbicidal rate of 5% or more and less than 20%); herbicidal effect on P: chickweed (evaluation grade 0-5) (chickweed [22]): 5 (Herbicidal rate of 90% or more (almost completely withered)); herbicidal effect on R: persian speedwell (evaluation grade 0-5) (persian speedwell [23]): 4 (Herbicidal rate of 70% or more and less than 90%)
2 | Cc1nn(C)c(=O)c(-c2c(-c3ccc(Cl)cc3)sc3c(F)cccc23)c1O [4-040] | 5 (Herbicidal rate of 90% or more (almost completely withered)) | 4 (Herbicidal rate of 70% or more and less than 90%) | 5 (Herbicidal rate of 90% or more (almost completely withered)) | 0 (Herbicidal rate of 5% or less (almost no effect)) | 0 (Herbicidal rate of 5% or less (almost no effect)) | 0 (Herbicidal rate of 5% or less (almost no effect)) | 0 (Herbicidal rate of 5% or less (almost no effect)) | 0 (Herbicidal rate of 5% or less (almost no effect)) | 2 (Herbicidal rate of 20% or more and less than 40%) | 0 (Herbicidal rate of 5% or less (almost no effect)) | 0 (Herbicidal rate of 5% or less (almost no effect)) | 3 (Herbicidal rate of 40% or more and less than 70%) | 3 (Herbicidal rate of 40% or more and less than 70%) | 1 (Herbicidal rate of 5% or more and less than 20%) | 4 (Herbicidal rate of 70% or more and less than 90%) | 0 (Herbicidal rate of 5% or less (almost no effect)) | 4 (Herbicidal rate of 70% or more and less than 90%) | 3 (Herbicidal rate of 40% or more and less than 70%) | 0 (Herbicidal rate of 5% or less (almost no effect)) | 3 (Herbicidal rate of 40% or more and less than 70%) | herbicidal effect on K: Italian ryegrass (evaluation grade 0-5) (Italian ryegrass [18]): 4 (Herbicidal rate of 70% or more and less than 90%); herbicidal effect on M: velvetleaf (evaluation grade 0-5) (velvetleaf [19]): 4 (Herbicidal rate of 70% or more and less than 90%); herbicidal effect on N: redroot pigweed (evaluation grade 0-5) (redroot pigweed [20]): 5 (Herbicidal rate of 90% or more (almost completely withered)); herbicidal effect on O: lambsquarters (evaluation grade 0-5) (lambsquarters [21]): 3 (Herbicidal rate of 40% or more and less than 70%); herbicidal effect on P: chickweed (evaluation grade 0-5) (chickweed [22]): 5 (Herbicidal rate of 90% or more (almost completely withered)); herbicidal effect on R: persian speedwell (evaluation grade 0-5) (persian speedwell [23]): 5 (Herbicidal rate of 90% or more (almost completely withered))
